Patent US20130203110A1 (priority 2010, published 2013)

Target: α7 subunit of the nicotinic Acetylcholine Receptor (nAchR) (Homo sapiens, UniProt P36544)
Type: biochemical

α7 subunit of the nicotinic Acetylcholine Receptor (nAchR), sequence (P36544 23-502 limits assumed): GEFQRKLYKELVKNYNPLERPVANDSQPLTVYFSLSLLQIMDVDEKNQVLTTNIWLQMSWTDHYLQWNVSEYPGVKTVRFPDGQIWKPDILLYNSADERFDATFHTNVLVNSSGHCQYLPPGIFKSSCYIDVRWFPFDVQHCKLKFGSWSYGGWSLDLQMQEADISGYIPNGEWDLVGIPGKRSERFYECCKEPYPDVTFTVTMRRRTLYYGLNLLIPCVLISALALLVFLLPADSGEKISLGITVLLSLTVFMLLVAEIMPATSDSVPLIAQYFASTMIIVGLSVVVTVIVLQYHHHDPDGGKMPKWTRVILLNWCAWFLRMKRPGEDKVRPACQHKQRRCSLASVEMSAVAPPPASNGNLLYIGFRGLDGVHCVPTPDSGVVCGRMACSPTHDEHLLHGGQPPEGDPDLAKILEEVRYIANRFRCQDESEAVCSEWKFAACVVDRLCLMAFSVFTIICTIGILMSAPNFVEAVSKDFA

Compound	signal on activation of the nAchR sensor	carbamoylcholine-induced signal after incubation with inhibitor
C[N+](C)(C)CCOC(N)=O.[Cl-] [carbamoylcholinechloride, Carbamoylcholine chloride]	results in a signal	–
α-Bungarotoxin [α-BTX]	–	could not be generated the same way
